Reference: BindingDB's records for doi:10.1016/j.bmcl.2012.11.036 (University of Namur, 2012)

Target: Indoleamine 2,3-dioxygenase 1 (Homo sapiens, UniProt P14902)
Test: Inhibition of human recombinant IDO1 using L-Trp as substrate assessed as kynurenine level after 30 mins

Sequence of Indoleamine 2,3-dioxygenase 1 (P14902 whole entry): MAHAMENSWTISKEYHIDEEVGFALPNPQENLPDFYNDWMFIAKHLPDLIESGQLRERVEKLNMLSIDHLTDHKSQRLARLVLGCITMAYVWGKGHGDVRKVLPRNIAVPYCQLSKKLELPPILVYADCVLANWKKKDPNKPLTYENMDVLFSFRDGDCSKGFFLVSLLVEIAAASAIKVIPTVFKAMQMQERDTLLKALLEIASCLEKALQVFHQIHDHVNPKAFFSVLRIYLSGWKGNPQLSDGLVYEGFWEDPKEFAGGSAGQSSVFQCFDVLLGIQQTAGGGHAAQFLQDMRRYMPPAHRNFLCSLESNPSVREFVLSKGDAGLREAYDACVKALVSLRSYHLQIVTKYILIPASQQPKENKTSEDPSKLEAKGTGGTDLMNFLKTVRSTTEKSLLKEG

Row | SMILES | IC50 [µM]
1 | COc1ccc(C2CN=C3C(=O)c4c(CCN)cn(S(=O)(=O)c5ccc(C)cc5)c4C(=O)C32)cc1 (configuration not stated) | 5.6
2 | COc1ccc(C2CN=C3C(=O)c4ccn(S(=O)(=O)c5ccc(C)cc5)c4C(=O)C32)cc1 (configuration not stated) | 5.6
